Measured values as given in PubChem BioAssay (NCI).
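How tested: cells in 96-well plates exposed to compound for 48 hours at five concentrations. GI50 marks 50% less growth. TGI marks complete inhibition of growth.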

Experiments:
Experiment in all cases: NCI anticancer screen, dose series, 48 h
[1] = tested on: 786-0 renal
[2] = tested on: A498 renal
[3] = tested on: A549 NSCLC
[4] = tested on: ACHN renal
[5] = tested on: BT-549 breast
[6] = tested on: CAKI-1 renal
[7] = tested on: CCRF-CEM leukemia
[8] = tested on: COLO 205 colon
[9] = tested on: DU-145 prostate
[10] = tested on: EKVX NSCLC
[11] = tested on: HCC-2998 colon
[12] = tested on: HCT-116 colon
[13] = tested on: HCT-15 colon
[14] = tested on: HL-60(TB) leukemia
[15] = tested on: HOP-62 NSCLC
[16] = tested on: HOP-92 NSCLC
[17] = tested on: HS 578T breast
[18] = tested on: HT29 colon
[19] = tested on: IGROV1 ovarian
[20] = tested on: K-562 leukemia
[21] = tested on: KM12 colon
[22] = tested on: LOX IMVI melanoma
[23] = tested on: M14 melanoma
[24] = tested on: MALME-3M melanoma
[25] = tested on: MCF7 breast
[26] = tested on: MDA-MB-231 breast
[27] = tested on: MDA-MB-435
[28] = tested on: MDA-MB-468 breast
[29] = tested on: MOLT-4 leukemia
[30] = tested on: NCI-H226 lung
[31] = tested on: NCI-H23 lung
[32] = tested on: NCI-H460 lung
[33] = tested on: NCI-H522 lung
[34] = tested on: NCI/ADR-RES ovarian
[35] = tested on: OVCAR-3 ovarian
[36] = tested on: OVCAR-4 ovarian
[37] = tested on: OVCAR-5 ovarian
[38] = tested on: OVCAR-8 ovarian
[39] = tested on: PC-3 prostate
[40] = tested on: RPMI-8226 leukemia
[41] = tested on: RXF 393 renal
[42] = tested on: SF-268 CNS
[43] = tested on: SF-295 CNS
[44] = tested on: SF-539 CNS
[45] = tested on: SK-MEL-2 melanoma
[46] = tested on: SK-MEL-28 melanoma
[47] = tested on: SK-MEL-5 melanoma
[48] = tested on: SK-OV-3 ovarian
[49] = tested on: SN12C renal
[50] = tested on: SNB-19 CNS
[51] = tested on: SNB-75 CNS
[52] = tested on: SR leukemia
[53] = tested on: SW-620 colon
[54] = tested on: T-47D breast
[55] = tested on: TK-10 renal
[56] = tested on: U251 CNS
[57] = tested on: UACC-257 melanoma
[58] = tested on: UACC-62 melanoma
[59] = tested on: UO-31 renal

O=C(c1ccc(Cl)cc1)C1[C@H](c2ccccc2Cl)[C@@H](c2ccccc2)NC12C(=O)Nc1ccc(Br)cc12 (stereo partly drawn)
GI50 [1]: 16.6 µM | TGI [1]: 34.4 µM | GI50 [2]: 19.9 µM | TGI [2]: 46.7 µM | GI50 [3]: 17.5 µM | TGI [3]: 42.3 µM | GI50 [4]: 22.8 µM | TGI [4]: 69.5 µM | GI50 [5]: 14.5 µM | TGI [5]: 28 µM | GI50 [6]: 14.8 µM | TGI [6]: 33.9 µM | GI50 [7]: 24.4 µM | TGI [7]: 68.2 µM | GI50 [8]: 17.4 µM | TGI [8]: 31.6 µM | GI50 [9]: 19.2 µM | TGI [9]: 40.5 µM | GI50 [10]: 16.6 µM | TGI [10]: 44 µM | GI50 [11]: 15.5 µM | TGI [11]: 31.1 µM | GI50 [12]: 14.4 µM | TGI [12]: 27.6 µM | GI50 [13]: 15.8 µM | TGI [13]: 30.5 µM | GI50 [14]: 20.8 µM | TGI [14]: 49.1 µM | GI50 [15]: 15 µM | TGI [15]: 30 µM | GI50 [16]: 15.6 µM | TGI [16]: 31 µM | GI50 [17]: 16.9 µM | TGI [17]: 42.7 µM | GI50 [18]: 17.9 µM | TGI [18]: 37 µM | GI50 [19]: 17.1 µM | TGI [19]: 41 µM | GI50 [20]: 26.8 µM | TGI [20]: 88.9 µM | GI50 [21]: 19.7 µM | TGI [21]: 44.7 µM | GI50 [22]: 15.2 µM | TGI [22]: 28.5 µM | GI50 [23]: 15.3 µM | TGI [23]: 29.3 µM | GI50 [24]: 15.5 µM | TGI [24]: 29 µM | GI50 [25]: 15.7 µM | TGI [25]: 37.3 µM | GI50 [26]: 15.6 µM | TGI [26]: 29.4 µM | GI50 [27]: 15.2 µM | TGI [27]: 29.6 µM | GI50 [28]: 11 µM | TGI [28]: 26.9 µM | GI50 [29]: 21.2 µM | TGI [29]: 61.7 µM | GI50 [30]: 14.4 µM | TGI [30]: 29.3 µM | GI50 [31]: 14.9 µM | TGI [31]: 31.1 µM | GI50 [32]: 17.7 µM | TGI [32]: 35 µM | GI50 [33]: 14.1 µM | TGI [33]: 29.9 µM | GI50 [34]: 15.5 µM | TGI [34]: 30.7 µM | GI50 [35]: 15.6 µM | TGI [35]: 32.4 µM | GI50 [36]: 18.3 µM | TGI [36]: 49.7 µM | GI50 [37]: 14.9 µM | TGI [37]: 29.6 µM | GI50 [38]: 17.7 µM | TGI [38]: 36.6 µM | GI50 [39]: 15.7 µM | TGI [39]: 37.5 µM | GI50 [40]: 26 µM | TGI [40]: 84.5 µM | GI50 [41]: 14.1 µM | TGI [41]: 28.2 µM | GI50 [42]: 16.6 µM | TGI [42]: 38.7 µM | GI50 [43]: 16.5 µM | TGI [43]: 32.4 µM | GI50 [44]: 16.5 µM | TGI [44]: 31.8 µM | GI50 [45]: 15.9 µM | TGI [45]: 31.6 µM | GI50 [46]: 16 µM | TGI [46]: 29.7 µM | GI50 [47]: 16.1 µM | TGI [47]: 29.8 µM | GI50 [48]: 24.3 µM | TGI [48]: 70.2 µM | GI50 [49]: 15 µM | TGI [49]: 28.2 µM | GI50 [50]: 24.8 µM | TGI [50]: 78.3 µM | GI50 [51]: 10.5 µM | TGI [51]: 35 µM | GI50 [52]: 16.5 µM | TGI [52]: 41.7 µM | GI50 [53]: 16.1 µM | TGI [53]: 31.4 µM | GI50 [54]: 15.2 µM | TGI [54]: 30.3 µM | GI50 [55]: 18.3 µM | TGI [55]: 50.6 µM | GI50 [56]: 16.1 µM | TGI [56]: 29.9 µM | GI50 [57]: 17.6 µM | TGI [57]: 37.8 µM | GI50 [58]: 13.7 µM | TGI [58]: 27 µM | GI50 [59]: 13.4 µM | TGI [59]: 30.6 µM
